Results on 38 compounds are retold here after paper PMC11647683, “Structural Aspects of Mycobacterium tuberculosis DNA Gyrase Targeted by Novel Bacterial Topoisomerase Inhibitors” (ACS Medicinal Chemistry Letters, 2024).

For data set [1], the target named is T1, M. tuberculosis DNA gyrase (Mycobacterium tuberculosis, UniProt P9WG47).
T1 construct: purchased Inspiralis (Norwich, UK)
The data set can be described thus: biochemical. The conditions noted are these: M. tuberculosis DNA gyrase supercoiling, 100 nM compound.

Data set [2] concerns the target T1, M. tuberculosis DNA gyrase. The data set can be described thus: biochemical. The format is biochemical.
Data set [3] concerns M. tuberculosis H37Rv. The data set can be described thus: microbe, parasite or virus in culture. The data set is classed as cell-based. The following applies: Mycobacterium tuberculosis; for IC50: read-out: Antituberculosis activity M. tuberculosis H37Rv IC50; for IC90: read-out: Antituberculosis activity M. tuberculosis H37Rv IC90.
Another data set concerns the target hERG (Homo sapiens, UniProt Q12809).
For data set [4], the system named is M. tuberculosis H37Rv. The following applies: calculated from the published MIC value ref 26; cited from earlier work.
[5] abbreviates: Assay 1 (single determination), read-out: M. tuberculosis gyrase supercoiling IC50, Assay 1.
Setting [6] is: Assay 2 (single determination), read-out: M. tuberculosis gyrase supercoiling IC50, Assay 2.
[7] abbreviates: supercoiling assay, mean of two independent measurements ± SD, read-out: Enzyme inhibition M. tuberculosis DNA gyrase IC50.
Where [8] appears, read: reference wild-type strain, 90% inhibition of bacteria growth, mean of two independent measurements ± SD.
Where [9] appears, read: M. tuberculosis gyrase supercoiling IC50, Assay 1, Assay 1 (single determination).
Where [10] appears, read: M. tuberculosis gyrase supercoiling IC50, Assay 2, Assay 2 (single determination).

SMILES strings stand for the structures. Read-outs that look alike come from different tables or passages of the source. Bounds are passed on as bounds.

T1 sequence (P9WG45 whole entry): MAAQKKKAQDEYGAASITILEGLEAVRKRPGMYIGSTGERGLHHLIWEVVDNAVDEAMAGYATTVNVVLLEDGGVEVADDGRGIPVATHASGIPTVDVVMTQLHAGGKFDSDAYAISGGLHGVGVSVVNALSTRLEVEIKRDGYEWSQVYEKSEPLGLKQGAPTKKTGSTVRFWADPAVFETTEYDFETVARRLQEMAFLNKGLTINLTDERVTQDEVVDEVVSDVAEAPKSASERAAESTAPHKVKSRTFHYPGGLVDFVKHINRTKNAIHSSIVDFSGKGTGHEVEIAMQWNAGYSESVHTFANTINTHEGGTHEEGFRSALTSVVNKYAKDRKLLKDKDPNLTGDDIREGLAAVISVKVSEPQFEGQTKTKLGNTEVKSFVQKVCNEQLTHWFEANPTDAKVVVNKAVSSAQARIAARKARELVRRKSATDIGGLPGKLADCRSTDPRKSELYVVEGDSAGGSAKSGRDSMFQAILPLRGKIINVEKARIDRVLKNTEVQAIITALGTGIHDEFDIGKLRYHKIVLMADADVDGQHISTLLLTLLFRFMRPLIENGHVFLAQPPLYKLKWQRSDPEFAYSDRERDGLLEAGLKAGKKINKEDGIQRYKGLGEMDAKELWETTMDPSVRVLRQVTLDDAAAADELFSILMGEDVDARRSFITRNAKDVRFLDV
T1 sequence (P9WG47 whole entry): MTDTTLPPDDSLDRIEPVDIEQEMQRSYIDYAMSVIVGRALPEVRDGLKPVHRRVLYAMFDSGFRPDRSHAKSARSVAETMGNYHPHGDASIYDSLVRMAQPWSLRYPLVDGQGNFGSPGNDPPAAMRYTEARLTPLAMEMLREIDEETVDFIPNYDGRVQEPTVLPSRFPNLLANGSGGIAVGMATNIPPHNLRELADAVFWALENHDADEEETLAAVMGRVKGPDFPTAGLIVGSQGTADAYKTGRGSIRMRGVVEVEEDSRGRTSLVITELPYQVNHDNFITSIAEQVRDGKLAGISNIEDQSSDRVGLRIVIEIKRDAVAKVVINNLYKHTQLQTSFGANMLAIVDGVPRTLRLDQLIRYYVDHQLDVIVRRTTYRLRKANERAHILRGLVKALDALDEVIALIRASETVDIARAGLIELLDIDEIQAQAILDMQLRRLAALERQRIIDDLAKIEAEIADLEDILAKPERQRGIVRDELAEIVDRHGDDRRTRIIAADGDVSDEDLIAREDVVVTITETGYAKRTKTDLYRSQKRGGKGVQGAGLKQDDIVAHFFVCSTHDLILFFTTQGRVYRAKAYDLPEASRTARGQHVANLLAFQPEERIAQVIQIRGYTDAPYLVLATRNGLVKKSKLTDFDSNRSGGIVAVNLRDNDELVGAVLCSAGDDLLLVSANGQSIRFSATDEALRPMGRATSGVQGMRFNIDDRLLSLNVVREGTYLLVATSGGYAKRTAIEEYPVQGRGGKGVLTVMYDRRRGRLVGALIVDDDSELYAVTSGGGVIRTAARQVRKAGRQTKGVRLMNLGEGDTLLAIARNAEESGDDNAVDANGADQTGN
Sequence of hERG (Q12809 whole entry): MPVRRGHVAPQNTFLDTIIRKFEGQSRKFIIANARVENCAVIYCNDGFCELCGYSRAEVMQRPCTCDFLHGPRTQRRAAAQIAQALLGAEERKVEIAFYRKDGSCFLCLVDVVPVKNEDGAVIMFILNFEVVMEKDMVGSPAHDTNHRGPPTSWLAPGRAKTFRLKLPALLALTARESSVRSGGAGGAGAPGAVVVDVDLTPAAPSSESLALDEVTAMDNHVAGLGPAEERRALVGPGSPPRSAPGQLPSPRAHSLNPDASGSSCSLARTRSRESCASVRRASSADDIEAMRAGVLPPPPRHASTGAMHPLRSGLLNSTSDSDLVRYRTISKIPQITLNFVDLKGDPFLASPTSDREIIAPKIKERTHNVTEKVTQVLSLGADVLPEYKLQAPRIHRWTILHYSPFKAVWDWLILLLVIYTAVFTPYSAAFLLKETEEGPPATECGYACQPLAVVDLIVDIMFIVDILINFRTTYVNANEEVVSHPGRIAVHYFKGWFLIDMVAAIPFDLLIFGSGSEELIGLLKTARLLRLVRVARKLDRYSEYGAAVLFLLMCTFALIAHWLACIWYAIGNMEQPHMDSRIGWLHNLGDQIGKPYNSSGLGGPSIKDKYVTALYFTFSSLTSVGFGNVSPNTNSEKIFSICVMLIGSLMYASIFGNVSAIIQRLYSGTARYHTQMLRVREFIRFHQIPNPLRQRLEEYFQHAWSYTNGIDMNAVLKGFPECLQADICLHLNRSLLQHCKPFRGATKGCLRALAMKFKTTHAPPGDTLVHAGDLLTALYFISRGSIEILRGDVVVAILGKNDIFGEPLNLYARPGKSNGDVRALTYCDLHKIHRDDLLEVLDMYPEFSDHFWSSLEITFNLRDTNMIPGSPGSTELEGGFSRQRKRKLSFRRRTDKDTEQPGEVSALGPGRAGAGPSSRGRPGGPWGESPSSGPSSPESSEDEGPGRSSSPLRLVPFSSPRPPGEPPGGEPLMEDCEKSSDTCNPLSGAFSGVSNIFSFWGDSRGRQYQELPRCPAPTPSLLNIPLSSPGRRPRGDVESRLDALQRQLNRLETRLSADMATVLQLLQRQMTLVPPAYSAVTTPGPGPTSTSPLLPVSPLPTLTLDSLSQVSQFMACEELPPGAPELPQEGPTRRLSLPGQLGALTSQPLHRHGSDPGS

For orientation: inhibition means the share of the control response that was lost under treatment. Higher therefore signals a strong effect. In data set [1], `COc1ccc2nccc(OCC3CCC(NCc4cc(F)c(Cl)c(F)c4)CO3)c2n1` (stereo not shown) [Compound 34] gave an inhibition at 0.1 µM of 4.3%.

In the case of `COc1ccc2nccc(CCN3CCC(NCc4ccc(Cl)cn4)CC3)c2n1` [Compound 23], the inhibition at 0.1 µM in data set [1] came out at 0%.

For orientation: IC50 means the concentration needed to halve the response being measured. For orientation: IC90 means the point of the concentration-response curve where the effect stands at 90%. As to `COc1ccc2nccc(CCN3CCC(NCc4cc(F)c(Cl)c(F)c4)CC3)c2n1` [Compound 3], the IC50 was 0.093 µM in data set [2] (setting [5]); 0.091 µM in data set [2] (setting [6]); 0.092 ± 0.001 µM in data set [2] (setting [7]); 0.071 ± 0.003 µM in the data set on M. tuberculosis H37Rv [3]; 0.436 µM against hERG. The compound also registered an inhibition at 0.1 µM in data set [1] of 90.2%. Moreover, in the data set on M. tuberculosis H37Rv [3] (setting [8]), the IC90 turned out to be 0.092 ± 0.008 µM.

In the case of `COc1ccc2nccc(OCC3CCC(NCc4ccc(Br)cc4)CO3)c2n1` (stereo not shown) [Compound 31], in data set [1], the inhibition at 0.1 µM came out at 0%.

In data set [1], `COc1ccc2nccc(OCC3CCC(NCc4ccc(I)cc4)CC3)c2n1` (stereo not shown) [Compound 26] yielded an inhibition at 0.1 µM of 9.68%. The same measure, in the same setting: the value for `COc1ccc2nccc(CCN3CCC(NCc4ccc(I)c(F)c4F)CC3)c2n1` [Compound 21] was 14.4%.

With `COc1ccc2nccc(OCC3CCC(NCc4ccc(I)c(F)c4)CO3)c2n1` (stereo not shown) [Compound 35], in data set [1], the inhibition at 0.1 µM was 20.3%. On the same count and under the same terms, the value for `COc1ccc2nccc(CCN3CCC(NCc4ccc(F)cc4)CC3)c2n1` [Compound 14] was 0%.

Take `COc1ccc2nccc(CCN3CCC(NCc4cc(F)c(Br)c(F)c4)CC3)c2n1` [Compound 4]: the figures for the 50% inhibitory concentration (IC50) in data set [2] (setting [5]), in data set [2] (setting [6]) and in data set [2] (setting [7]) were 0.089 µM, 0.069 µM and 0.079 ± 0.01 µM, respectively. This compound also yielded an inhibition at 0.1 µM in data set [1] of 99.8%. Further, the IC90 in the data set on M. tuberculosis H37Rv [3] (setting [8]) was found to be 0.062 ± 0.004 µM.

Compound `COc1ccc2nccc(CCN3CCC(NCc4ccc(Br)cc4)CC3)c2n1` [Compound 16] had an inhibition at 0.1 µM in data set [1] of 64.1%. Take `COc1ccc2nccc(C(O)CC3CCC(NCc4cc(F)c(Br)c(F)c4)CC3)c2n1` (stereo not shown) [Compound 5]: the IC50 in data set [2] (setting [5]) is 0.097 µM; in data set [2] (setting [6]), 0.096 µM; in data set [2] (average of Assay 1 and Assay 2, read-out: M. tuberculosis gyrase supercoiling IC50, Average), 0.096 µM; in data set [2] (setting [7]), 0.096 µM. The same compound showed an inhibition at 0.1 µM in data set [1] of 95%. Besides, in the data set with M. tuberculosis H37Rv [3] (setting [8]), the IC90 worked out at 0.28 ± 0.065 µM.

In data set [1], `COc1ccc2nccc(CCN3CCC(NCc4ccc(Cl)nc4)CC3)c2n1` [Compound 22] came in with an inhibition at 0.1 µM of 27.3%.

Regarding `COc1ccc2nccc(OCC3CCC(NCc4cc(F)c(Br)c(F)c4)CC3)c2n1` (stereo not shown) [Compound 28], in data set [1], the inhibition at 0.1 µM was 23.8%.

Consider `COc1ccc2nccc(CCN3CCC(NCc4ccc(Br)c(F)c4F)CC3)c2n1` [Compound 19], for which, in data set [1], the inhibition at 0.1 µM was 29.9%. On the same count and under the same terms, the value for `COc1ccc2nccc(CCN3CCC(NCc4ccc(OC(F)F)c(OC)c4)CC3)c2n1` [Compound 6] was 0%. For the compound `C[C@H]1COc2c(N3CCN(C)CC3)c(F)cc3c(=O)c(C(=O)O)cn1c23` [Levofloxacin, reference compound], in the data set on M. tuberculosis H37Rv [3], the IC50 was 0.59 µM and the IC90 came out at 0.98 µM. In turn, `COc1ccc2nccc(OCC3CCC(NCc4ccc(Br)cc4)CC3)c2n1` (stereo not shown) [Compound 25] came in with an inhibition at 0.1 µM in data set [1] of 0%. In the case of `COc1ccc2nccc(CCN3CCC(NCc4ccc(Cl)cc4)CC3)c2n1` [Compound 15], in data set [1], the inhibition at 0.1 µM amounted to 44.8%. The same measure, in the same setting: the value for `COc1ccc2nccc(CCN3CCC(NCc4cc(F)c(Br)cc4F)CC3)c2n1` [Compound 20] was 43.1%; that for `COc1ccc2nccc(OCC3CCC(NCc4cc(F)c(Br)c(F)c4)CO3)c2n1` (stereo not shown) [Compound 33] was 19.3%; that for `COc1ccc2nccc(CCN3CCC(NCc4ccc(I)cc4)CC3)c2n1` [Compound 17] was 63.7%. Same read-out and setting: the value for `COc1ccc2nccc(OCC3CCC(NCc4ccc(Cl)cc4)CC3)c2n1` (stereo not shown) [Compound 24] was 4.7 ± 4.7%; that for `COc1ccc(CNC2CCN(CCc3ccnc4ccc(OC)nc34)CC2)cn1` [Compound 12] was 0%.

For the compound `COc1ccc2nccc(CCN3CCC(NCc4ccc(Cl)c(F)c4)CC3)c2n1` [Compound 18], the inhibition at 0.1 µM in data set [1] was 52.2%.

In data set [1], `COc1ccc2nccc(CCN3CCC(NCc4ccc(OC(F)F)c(O)c4)CC3)c2n1` [Compound 7] returned an inhibition at 0.1 µM of 3.47%. On the same count and under the same terms, the value for `COc1ccc2nccc(CCN3CCC(NCc4ccc(C(F)(F)F)nc4)CC3)c2n1` [Compound 8] was 27.4%; that for `COc1ccc2nccc(CCN3CCC(NCc4cnn(C(C)C)c4)CC3)c2n1` [Compound 9] was 7.45%; that for `COc1ccc2nccc(OCC3CCC(NCc4ccc(Cl)cc4)CO3)c2n1` (stereo not shown) [Compound 30] was 0%. Still for that read-out and setting: the value for `COc1ccc2nccc(OCC3CCC(NCc4cc(F)c(Cl)c(F)c4)CC3)c2n1` (stereo not shown) [Compound 27] was 41.6%; that for `COc1ccc2nccc(OCC3CCC(NCc4ccc(I)cc4)CO3)c2n1` (stereo not shown) [Compound 32] was 0.6%. As to `O=c1ccc2ncc(=O)n3c2n1C[C@H]3CN1CCC(NCc2cc3c(cn2)OCCC3)CC1` [Gepotidacin, reference compound], on hERG, the IC50 is above 30 µM. The MIC entry in the data set on M. tuberculosis H37Rv [4] was “g MIC = 0.86 μM value for Gepotidacin was calculated from the published MIC value.[26] “/” values were not found in the literature”. For `COc1ccc2nccc(CCN3CCC(NCc4ccccc4)CC3)c2n1` [Compound 13], the inhibition at 0.1 µM in data set [1] amounted to 0%.

As for `COc1ccc2nccc(CCN3CCC(NCc4ccc(I)c(F)c4)CC3)c2n1` [Compound 2], the half-maximal inhibitory concentration (IC50) in data set [2] (setting [9]) is 0.155 µM; in data set [2] (setting [10]), 0.056 µM; in data set [2] (setting [7]), 0.105 ± 0.05 µM; in the data set on M. tuberculosis H37Rv [3] it was 0.2 ± 0.025 µM; on hERG it was 0.243 µM. Besides, 0.1 µM produced 80.4% inhibition in data set [1]. For the same compound, the concentration for an effect of 90% (IC90) in the data set with M. tuberculosis H37Rv [3] (setting [8]) was found to be 0.27 ± 0.045 µM.

On to `COc1ccc2nccc(OCC3CCC(NCc4ccc(I)c(F)c4)CC3)c2n1` (stereo not shown) [Compound 29], for which the inhibition at 0.1 µM in data set [1] was 27.8%. On the same count and under the same terms, the value for `COc1ccc2nccc(C(O)CC3CCC(NCc4ccc(Br)cc4)CC3)c2n1` (stereo not shown) [Compound 36] was 24.9%. The same measure, in the same setting: the value for `C=CCn1cc(CNC2CCN(CCc3ccnc4ccc(OC)nc34)CC2)cn1` [Compound 10] was 5.13%. As to `COc1ccc2nccc(CCN3CCC(NCc4ccc(N(C)C)cc4)CC3)c2n1` [Compound 11], 0.1 µM produced 0% inhibition in data set [1].

Turning to `COc1ccc2nccc(CCN3CCC(NCc4ccc(Br)c(F)c4)CC3)c2n1` [Compound 1], the IC50 worked out at 0.397 µM in data set [2] (setting [9]); 0.33 µM in data set [2] (setting [10]); 0.363 ± 0.034 µM in data set [2] (setting [7]); 0.18 ± 0.045 µM in the data set with M. tuberculosis H37Rv [3]; 0.455 µM on hERG. Besides, at 0.1 µM the inhibition in data set [1] was 84.1%. Also, the IC90 with M. tuberculosis H37Rv [3] (setting [8]) worked out at 0.2 ± 0.05 µM.
